The record followed here is PMC4876444, “Two-Photon Enzymatic Probes Visualizing Sub-cellular/Deep-brain Caspase Activities in Neurodegenerative Models” (Scientific Reports, 2016).

In data set [1] the test system is caspases (-1, -3, -6, -8 and -9). Nature of the data set: In vitro selectivity against a panel of recombinant caspases. It is filed as biochemical, Human. To be noted: probe 6 μM, uniform conditions with caspases -1, -3, -6, -8, -9, 2-h incubation at room temperature, tetrapeptide-AMC as references. Here is the method:
Figure 2 Photophysical and enzymatic properties of caspase probes. (a) Photophysical and kinetic properties of probes and free dyes. All measurements were taken in 50 mM HEPES, 50 mM NaCl, 0.1% CHAPS, 10 mM EDTA, 5% glycerol, 10 mM DTT, at pH = 7.2. (b) Time-dependent ratiometric fluorescence changes of C1RB (6 μM) incubated with caspase-1 (10 nM) over 2 h at room temperature. Data were obtained by plotting the normalized ratio of fluorescence intensity at 500 nm (F500 nm) over that at 450 nm (F450 nm). (Inset) time-dependent fluorescence emission spectra with λex = 350 nm. (c) Time-dependent “Turn-ON” effect of C1FS (6 μM) incubated with caspase-1 (10 nM) measured and normalized at 460 nm (F460 nm) over 2 h at room temperature, with the corresponding fluorescence emission spectra (inset). λex = 350 nm. […] S and N represent the fluorescence emission intensity of each reaction solution in the presence (S) and absence (N) of caspase-1. […] Normalized, relative fluorescence (RFU) values were obtained after 2-h incubation at room temperature. […]
Enzyme kinetics. […] Detailed kinetic properties of these probes were measured with target recombinant caspases using commercial tetrapeptide-AMC fluorogenic substrates as references at 25 °C in 384-well plates (Greiner Bio-One #781900). […]
shaking at 150 rpm for 24 h at 25 °C, a small portion of the reaction was analyzed by LC-MS (IT-TOF). […]

Assay in data set [2]: not given
This is another data set of the same source.

Assay in data set [3]: not given
This is another data set of the same source.

The subject of data set [4] is caspase-3-like activities in STS-induced BV2 and HeLa cells. Nature of the data set: TPFM live-cell imaging of STS-induced apoptotic cells. The format is cell-based, mouse, human. How it is done:
Figure 3 Bioimaging of active caspases in live cells. TPFM (λex = 760 nm; λem = 480-550 nm for all AAN-probes) of STS-induced (a) BV2 cells (2 μM, 4 h) and (b) HeLa cells (1 μM, 4 h) using C3RA/C8RA (24 μM, 1 h). Panels 3/6: cells pretreated with Z-VAD(OMe)-FMK (50 μM, 1 h) before STS addition. Panels 1/4: normal cells (DMSO). (c) WB analysis of cleaved caspase-3/-8 from (a,b). (d) TPFM of normal/apoptotic Hela cells imaged by C3RA (24 μM, up) or Ac-DEVD-AMC (40 μM, down; λem = 420–500 nm). Panels 1/3: normal cells. Panels 2/4: STS-induced cells (1 μM, 4 h). Bottom inset: bright field. Top inset: one-photon images (λex = 405 nm). (e) Real-time imaging of caspase-3/-8-like activities in live BV2 cells using 24 μM of C3RA (top)/C8RA (bottom) upon STS (2 μM) stimulation over 2 h. (f) Graphical quantification of RFU extracted from (e). (g) WB analysis of time-dependent caspase-3/-8 cleavage from STS-induced (2 μM) BV2 lysates. (h) WB analysis of time-dependent caspase-3/-7/-8 activation by detection of cleaved caspase-3/-7/-8 from lysates of HeLa cells stimulated with STS (2 μM). (i) RFU from real-time imaging of caspase-3-like activity in live HeLa cells with C3RA/C3RM/C3RE (24 μM, added 1 h before STS) upon STS (2 μM) stimulation. (j) Representative images (t = 60 min) from (i). (k) IF of STS-stimulated (2 μM, 2 h) HeLa cells by anti-caspase-3 (p17) antibody (red) with 3D projections of z-stack images at 90° view and merged with MitoTracker (green, left) or ER tracker (cyan, right). (l) TPFM of caspase-1 activation in primary cortical neurons upon glucose deprivation (GD, 8 h) followed by 1-h incubation with C1RB (24 μM) or C1FS (12 μM; λem = 450–550 nm). Inset: bright field images. NC: neuron cells incubated in normal neurobasal medium. Scale bar = 10 μm in all images.
NIH/3T3, HeLa and BV2 cell lines used in our experiments were cultured in DMEM medium supplemented with 10% (for NIH/3T3 and HeLa) or 5% (for BV2) fetal bovine serum (FBS), with 100.0 mg/L streptomycin and 100 IU/mL penicillin. […]

Data set [5] deals with NIH/3T3, BV2 and HeLa cells. Nature of the data set: XTT cytotoxicity assay. Particulars: XTT assay, 12, 30, 60, 120 μM, 24 h. It is filed as cell-based, mouse, human. How it is done:
Supplementary Figure 4. Cytotoxicity of two-photon enzymatic probes (12, 30, 60, 120 μM) in mammalian cells (NIH/3T3, BV2 and HeLa) after incubation for 24 h, as determined by XTT assay. […]
Detection of caspase activities in mammalian cells and tissues
Cell culture. The mouse embryonic fibroblast cell line (NIH/3T3), mouse microglial cell line (BV2) and human epithelial carcinoma cell line (HeLa) used in our experiments were cultured in Dulbecco’s Modified Eagle's Medium (DMEM) supplemented with 10% (for NIH/3T3 and HeLa) or 5% (for BV2) fetal bovine serum (FBS), 100.0 mg/L streptomycin and 100 IU/mL penicillin in a humidified atmosphere of 5% CO2 at 37 °C.
XTT assay. The cytotoxicity of our probes was determined by using the XTT colorimetric cell proliferation kit (Roche) following manufacturer’s guidelines. Briefly, NIH/3T3, BV2 and HeLa cells were seeded in 20~30% confluency (since they will reach >50% confluency within 24 h) into 96-well plates and incubated overnight before the addition of probes with concentrations of 12 μM, 30 μM, 60 μM and 120 μM, respectively. Probes were applied from DMSO stocks whereby DMSO never exceeded 1% in the final solution. The same volume of DMSO was used as a negative control; and the same volume of STS (200 nM) was used as a positive control. After a total treatment time of 24 h, proliferation was assayed using the XTT assay (Supplementary Fig. 4). […]
(Tetrazolium dyes change colour on reduction, which living cells bring about.)

Where a SMILES comes first, the peptide text is derived from it. The star is where a group is joined. NH(6-Ac-2-naphthyl) = CC(=O)c1ccc2cc(N*)ccc2c1; Cbz = O=C(OCc1ccccc1)*; CH2F = FC*

For `CC(=O)N[C@@H](CC(C)C)C(=O)N[C@@H](CCC(=O)O)C(=O)N[C@@H](Cc1c[nH]cn1)C(=O)N[C@@H](CC(=O)O)C(=O)Nc1ccc2cc(C(C)=O)ccc2c1` [C9RA, Ac-LEHD-AAN] (Ac-LEHD-{NH(6-Ac-2-naphthyl)}), the λem (emission maximum) was 448 nm. For the same compound, the “probe selectivity profile towards intended caspase” value in data set [1] is reported as “comparatively poor selectivity profiles”. In data set [2], this compound displayed a λex (absorption/excitation maximum) of 316 nm. In data set [3], this compound displayed a δΦ (two-photon action cross-section) of 3.2 GM.

For the compound Cbz-Val-Ala-Asp(OMe)-CH2F, in data set [4] (inhibitor 50 μM, 1 h before STS, BV2 and HeLa cells, C3RA 24 μM), the “effect of inhibitor on C3RA fluorescence in STS-induced cells” value is “inhibited”.

For `CC[C@H](C)[C@H](NC(=O)[C@H](CCC(=O)O)NC(=O)[C@@H](NC(C)=O)C(C)C)C(=O)N[C@@H](CC(=O)O)C(=O)Nc1ccc2cc(C(C)=O)ccc2c1` [C6RA, Ac-VEID-AAN] (Ac-VEID-{NH(6-Ac-2-naphthyl)}), the λem (emission maximum) stood at 448 nm. Moreover, the “probe selectivity profile towards intended caspase” value in data set [1] is on record as “comparatively poor selectivity profiles”. Also, the λex (absorption/excitation maximum) in data set [2] came to 316 nm. The δΦ (two-photon action cross-section) in data set [3] was 1.8 GM.

For `CC(=O)N[C@@H](CC(=O)O)C(=O)N[C@@H](CCC(=O)O)C(=O)N[C@H](C(=O)N[C@@H](CC(=O)O)C(=O)Nc1ccc2c(C)cc(=O)oc2c1)C(C)C` [Ac-DEVD-AMC], in data set [4] (live HeLa cells, STS 1 μM 4 h, 40 μM, λex 760 nm), the “fluorescence properties for imaging caspase-3-like activities under two-photon settings, compared to C3RA” value is on record as “significantly poorer fluorescence properties”.

Turning to `CC(=O)N[C@@H](Cc1ccc(O)cc1)C(=O)N[C@H](C(=O)N[C@@H](C)C(=O)N[C@@H](CC(=O)O)C(=O)Nc1ccc2cc(C(C)=O)ccc2c1)C(C)C`, the λem (emission maximum) stood at 448 nm. In data set [2], this compound registered a λex (absorption/excitation maximum) of 316 nm. In data set [3], this compound returned a δΦ (two-photon action cross-section) of 6.9 GM.

As to `CC[C@H](C)[C@H](NC(C)=O)C(=O)N[C@@H](CCC(=O)O)C(=O)N[C@H](C(=O)N[C@@H](CC(=O)O)C(=O)Nc1ccc2cc(C(C)=O)ccc2c1)[C@@H](C)O` [C8RA, Ac-IETD-AAN] (Ac-IETD-{NH(6-Ac-2-naphthyl)}), the λem (emission maximum) was determined as 448 nm. In addition, in data set [5], the cytotoxicity result is “minimally cytotoxic”. This compound displayed a λex (absorption/excitation maximum) in data set [2] of 316 nm. The δΦ (two-photon action cross-section) in data set [3] stood at 2.4 GM.

On to `CC(=O)c1ccc2cc(NC(=O)[C@H](CC(=O)O)NC(=O)[C@@H](NC(=O)[C@H](CCC(=O)O)NC(=O)[C@H](CC(=O)O)NC(=O)CCC[P+](c3ccccc3)(c3ccccc3)c3ccccc3)C(C)C)ccc2c1` [C3RM, TPP-DEVD-AAN], for which the λem (emission maximum) amounted to 448 nm. For the same compound, in data set [5], the cytotoxicity result was “minimally cytotoxic”. The λex (absorption/excitation maximum) in data set [2] turned out to be 317 nm. This compound had a δΦ (two-photon action cross-section) in data set [3] of 1.4 GM.
